The source made the active and inactive calls. The rule behind the calls is not given here.

Results on 2 compounds are retold here after ChEMBL document CHEMBL1130231, “Betidamino acid scan of the GnRH antagonist acyline” (J Med Chem, 1997).

What all share (type): functional, organism-based
Experiment [1] deals with Rattus norvegicus. The experiment is described as follows: Ratio of ovulated rats to total number of rats determined in a anti-ovulatory assay by administering 5 microg of compound; 1/8.
The subject of experiment [2] is Rattus norvegicus. Description: Ratio of ovulated rats to total number of rats determined in a anti-ovulatory assay by administering 10 ug of compound; 0/8.
Experiment [3] has as its system Rattus norvegicus. The experiment is described as follows: Ratio of ovulated rats to total number of rats determined in a anti-ovulatory assay by administering 2.5 microg of compound; 0/8.
Experiment [4] has as its system Rattus norvegicus. Description: Ratio of ovulated rats to total number of rats determined in a anti-ovulatory assay by administering 1 microg of compound; 1/8.

Take `CC(=O)Nc1ccc(C[C@H](NC(=O)[C@H](CO)NC(=O)[C@H](Cc2cccnc2)NC(=O)[C@@H](Cc2ccc(Cl)cc2)NC(=O)[C@@H](Cc2ccc3ccccc3c2)NC(C)=O)C(=O)N[C@H](Cc2ccc(NC(C)=O)cc2)C(=O)N[C@@H](CC(C)C)C(=O)N[C@@H](CCCCNC(C)C)C(=O)N2CCC[C@@H]2C(=O)N[C@H](C)C(N)=O)cc1`: the ov. rat/total entry in the experiment with Rattus norvegicus [1] and with Rattus norvegicus [2] was “Active” throughout.
Consider `CC(=O)Nc1ccc(C[C@H](NC(=O)[C@H](CO)NC(=O)[C@@H](Cc2cccnc2)NC(=O)[C@@H](Cc2ccc(Cl)cc2)NC(=O)[C@@H](Cc2ccc3ccccc3c2)NC(C)=O)C(=O)N[C@H](Cc2ccc(NC(C)=O)cc2)C(=O)N[C@@H](CC(C)C)C(=O)N[C@@H](CCCCNC(C)C)C(=O)N2CCC[C@@H]2C(=O)N[C@H](C(N)=O)N(C)C=O)cc1`, for which, in the experiment on Rattus norvegicus [3], the ov. rat/total entry was “Active”. In addition, in the experiment with Rattus norvegicus [4], the ov. rat/total entry is “inactive”.
